# Reference: patent US11986532B2 (Arvinas Operations, Inc., priority 2021, dated 2024)
# Read-outs that look alike come from different tables or passages of the source.
# Biological target: T1, BCL6 (Homo sapiens, UniProt P41182)
# T1 construct: endogenous in cells; host or cells: T47D breast cancer epithelial cells
# Assay: Immunofluorescence protocol for high content imaging of BCL6 (degradation) in T47D cells, 3 days compound treatment
# Assay type: cell-based
# Conditions: for DC50: read-out: Mean DC50 (nM)* category; for Dmax: read-out: Mean Dmax (%)** category
# How it was run: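 T47D, RPMI1640/10% FBS; cpd 11-pt 3-fold, top 0.1 or 1 μM final; 3 d, 37° C. Fix 4% PFA, perm 0.1% Triton, block 3% BSA; anti-BCL6 1:300 o/n 4° C; Alexa-488 2°, CellMask-647, Hoechst. Imaged 10×, 4 fields/well.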
# [1] = T47D cells, 3 days compound treatment
DC50 [1] [nM],Dmax [1] [%],Dmax (T47D) [%],DC50 [nM],SMILES
≥ 100,50 to 70,,,"CNC(=O)COc1cc2cc(Nc3nc(N4CCC5(CC4)CC(C(C)(C)N4CCC(c6cccc7c6CN(C6CCC(=O)NC6=O)C7=O)CC4)C5)ncc3Cl)ccc2n(C(C)C)c1=O (centres unmarked) [Compound 154, 2-{[6-({5-chloro-2-[2-(2-{4-[2-(2,6-dioxopiperidin-3-yl)-1-oxo-2,3-dihydro-1H-isoindol-4-yl]piperidin-1-yl}propan-2-yl)-7-azaspiro[3.5]nonan-7-yl]pyrimidin-4-yl}amino)-2-oxo-1-(propan-2-yl)-1,2-dihydroquinolin-3-yl]oxy}-N-methylacetamide]"
< 10,50 to 70,,,"CNC(=O)COc1cc2cc(Nc3nc(N4CCC(O[C@H]5CC[C@H](N(C)C6CN(c7ccc8c(c7)C(=O)N(C7CCC(=O)NC7=O)C8=O)C6)CC5)CC4)ncc3Cl)ccc2n(C(C)C)c1=O (some centres unmarked) [Compound 107, 2-[(6-{[5-chloro-2-(4-{[(1r,4r)-4-({1-[2-(2,6-dioxopiperidin-3-yl)-1,3-dioxo-2,3-dihydro-1H-isoindol-5-yl]azetidin-3-yl}(methyl)amino)cyclohexyl]oxy}piperidin-1-yl)pyrimidin-4-yl]amino}-2-oxo-1-(propan-2-yl)-1,2-dihydroquinolin-3-yl)oxy]-N-methylacetamide]"
< 10,≥ 70,,,CNC(=O)COc1cc2c(F)c(Nc3nc(N4CCC(O[C@H]5C[C@H](N6CCN(c7ccc8c(c7C)C(=O)N(C7CCC(=O)NC7=O)C8=O)CC6)C5)CC4)ncc3Cl)ccc2n(C(C)C)c1=O (some centres unmarked) [Compound 195]
< 10,≥ 70,,,"CNC(=O)COc1cc2cc(Nc3nc(N4CCC(F)(CN5CCC6(CC5)CN(c5cccc7c5C(=O)N(C5CCC(=O)NC5=O)C7=O)C6)CC4)ncc3Cl)ccc2n(C(C)C)c1=O (centres unmarked) [Compound 44, 2-{[6-({5-chloro-2-[4-({2-[2-(2,6-dioxopiperidin-3-yl)-1,3-dioxo-2,3-dihydro-1H-isoindol-4-yl]-2,7-diazaspiro [3.5]nonan-7-yl}methyl)-4-fluoropiperidin-1-yl]pyrimidin-4-yl}amino)-2-oxo-1-(propan-2-yl)-1,2-dihydroquinolin-3-yl]oxy}-N-methylacetamide]"
,,50 to 70,< 10,"CNC(=O)COc1cc2cc(Nc3nc(N4CCN(CC5CCN(c6c(F)ccc7c6CN(C6CCC(=O)NC6=O)C7=O)CC5)CC4)ncc3Cl)ccc2n(C(C)C)c1=O (centres unmarked) [Compound 297, 2-{[6-({5-chloro-2-[4-({1-[2-(2,6-dioxopiperidin-3-yl)-5-fluoro-1-oxo-2,3-dihydro-1H-isoindol-4-yl]piperidin-4-yl}methyl)piperazin-1-yl]pyrimidin-4-yl}amino)-2-oxo-1-(propan-2-yl)-1,2-dihydroquinolin-3-yl]oxy}-N-methylacetamide]"
,,≥ 70,< 10,"CNC(=O)COc1cc2cc(Nc3nc(N4CCC(OC5CCC6(CC5)CN(c5ccc7c(c5C)CN(C5CCC(=O)NC5=O)C7=O)C6)CC4)ncc3Cl)ccc2n(C(C)C)c1=O (centres unmarked) [Compound 402, 2-{[6-({5-chloro-2-[4-({2-[2-(2,6-dioxopiperidin-3-yl)-4-methyl-1-oxo-2,3-dihydro-1H-isoindol-5-yl]-2-azaspiro[3.5]nonan-7-yl}oxy)piperidin-1-yl]pyrimidin-4-yl}amino)-2-oxo-1-(propan-2-yl)-1,2-dihydroquinolin-3-yl]oxy}-N-methylacetamide]"
< 10,≥ 70,,,"CNC(=O)COc1cc2c(F)c(Nc3nc(N4CCN(CC5CCC6(CC5)CN(c5cccc7c5C(=O)N(C5CCC(=O)NC5=O)C7=O)C6)CC4)ncc3Cl)ccc2n(C(C)C)c1=O (centres unmarked) [Compound 169, 2-{[6-({5-chloro-2-[4-({2-[2-(2,6-dioxopiperidin-3-yl)-1,3-dioxo-2,3-dihydro-1H-isoindol-4-yl]-2-azaspiro[3.5]nonan-7-yl}methyl)piperazin-1-yl]pyrimidin-4-yl}amino)-5-fluoro-2-oxo-1-(propan-2-yl)-1,2-dihydroquinolin-3-yl]oxy}-N-methylacetamide]"
< 10,≥ 70,,,"CNC(=O)COc1cc2cc(Nc3nc(N4CCN(CC5CC6(CCN(c7cccc8c7CN(C7CCC(=O)NC7=O)C8=O)CC6)C5)CC4)ncc3Cl)ccc2n(C(C)C)c1=O (centres unmarked) [Compound 7, 2-{[6-({5-chloro-2-[4-({7-[2-(2,6-dioxopiperidin-3-yl)-1-oxo-2,3-dihydro-1H-isoindol-4-yl]-7-azaspiro[3.5]nonan-2-yl}methyl)piperazin-1-yl]pyrimidin-4-yl}amino)-2-oxo-1-(propan-2-yl)-1,2-dihydroquinolin-3-yl]oxy}-N-methylacetamide]"
< 10,50 to 70,,,"CNC(=O)COc1cc2cc(Nc3nc(N4CCC(CN5CC6(CCN(c7ccc8c(c7)C(=O)N(C7CCC(=O)NC7=O)C8=O)CC6(F)F)C5)CC4)ncc3Cl)ccc2n(C(C)C)c1=O (centres unmarked) [Compound 135, 2-{[6-({5-chloro-2-[4-({7-[2-(2,6-dioxopiperidin-3-yl)-1,3-dioxo-2,3-dihydro-1H-isoindol-5-yl]-5,5-difluoro-2,7-diazaspiro[3.5]nonan-2-yl}methyl)piperidin-1-yl]pyrimidin-4-yl}amino)-2-oxo-1-(propan-2-yl)-1,2-dihydroquinolin-3-yl]oxy}-N-methylacetamide]"
< 10,< 50,,,"CNC(=O)COc1cc2cc(Nc3nc(N4CCC(F)(CN5CCC6(CCN(c7ccc8c(c7)CN(C7CCC(=O)NC7=O)C8=O)C6)C5)CC4)ncc3Cl)ccc2n(C(C)C)c1=O (centres unmarked) [Compound 17, 2-{[6-({5-chloro-2-[4-({7-[2-(2,6-dioxopiperidin-3-yl)-1-oxo-2,3-dihydro-1H-isoindol-5-yl]-2,7-diazaspiro[4.4]nonan-2-yl}methyl)-4-fluoropiperidin-1-yl]pyrimidin-4-yl}amino)-2-oxo-1-(propan-2-yl)-1,2-dihydroquinolin-3-yl]oxy}-N-methylacetamide]"
< 10,50 to 70,,,"CNC(=O)COc1cc2cc(Nc3nc(N4CCC5(CCN(CC6(F)CCN(c7ccc(F)c8c7CN(C7CCC(=O)NC7=O)C8=O)CC6)CC5)CC4)ncc3Cl)ccc2n(C(C)C)c1=O (centres unmarked) [Compound 129, 2-{[6-({5-chloro-2-[9-({1-[2-(2,6-dioxopiperidin-3-yl)-7-fluoro-1-oxo-2,3-dihydro-1H-isoindol-4-yl]-4-fluoropiperidin-4-yl}methyl)-3,9-diazaspiro[5.5]undecan-3-yl]pyrimidin-4-yl}amino)-2-oxo-1-(propan-2-yl)-1,2-dihydroquinolin-3-yl]oxy}-N-methylacetamide]"
,,50 to 70,10 to 50,"CNC(=O)COc1cc2cc(Nc3cc(N4CCC(CN5CCC6(CC5)CN(c5ccc7c(c5)C(=O)N(C5CCC(=O)NC5=O)C7=O)C6)CC4)ncc3Cl)ccc2n(C(C)C)c1=O (centres unmarked) [Compound 215, 2-{[6-({5-chloro-2-[4-({2-[2-(2,6-dioxopiperidin-3-yl)-1,3-dioxoisoindol-5-yl]-2,7-diazaspiro[3.5]nonan-7-yl}methyl)piperidin-1-yl]pyridin-4-yl}amino)-1-isopropyl-2-oxoquinolin-3-yl]oxy}-N-methylacetamide]"
< 10,50 to 70,,,"CNC(=O)COc1cc2cc(Nc3nc(N4CCC(CN5CCC6(CC5)CC5(CN(c7ccc8c(c7)CN(C7CCC(=O)NC7=O)C8=O)C5)C6)CC4)ncc3Cl)ccc2n(C(C)C)c1=O (centres unmarked) [Compound 168, 2-{[6-({5-chloro-2-[4-({2-[2-(2,6-dioxopiperidin-3-yl)-1-oxo-2,3-dihydro-1H-isoindol-5-yl]-2,9-diazadispiro[3.1.5^6.1^4]dodecan-9-yl}methyl)piperidin-1-yl]pyrimidin-4-yl}amino)-2-oxo-1-(propan-2-yl)-1,2-dihydroquinolin-3-yl]oxy}-N-methylacetamide]"
≥ 100,≥ 70,,,"CNC(=O)COc1cc2cc(Nc3nc(N4CCC5(CCN(CC6(F)CCN(c7ccc(F)c8c7C(=O)N(C7CCC(=O)NC7=O)C8)CC6)CC5)CC4)ncc3Cl)ccc2n(C(C)C)c1=O (centres unmarked) [Compound 130, 2-{[6-({5-chloro-2-[9-({1-[2-(2,6-dioxopiperidin-3-yl)-7-fluoro-3-oxo-2,3-dihydro-1H-isoindol-4-yl]-4-fluoropiperidin-4-yl}methyl)-3,9-diazaspiro[5.5]undecan-3-yl]pyrimidin-4-yl}amino)-2-oxo-1-(propan-2-yl)-1,2-dihydroquinolin-3-yl]oxy}-N-methylacetamide]"

SMILES,DC50 [1] [nM],Dmax [1] [%],Dmax (T47D) [%],DC50 [nM]
"CNC(=O)COc1cc2cc(Nc3nc(N4CCC(O[C@H]5C[C@H](N6CCC(c7cc8c(cn7)C(=O)N(C7CCC(=O)NC7=O)C8)CC6)C5)CC4)ncc3Cl)ccc2n(C(C)C)c1=O (some centres unmarked) [Compound 219, 2-({6-[(5-chloro-2-{4-[(1r,3r)-3-{4-[2-(2,6-dioxopiperidin-3-yl)-3-oxo-1H,2H,3H-pyrrolo[3,4-c]pyridin-6-yl]piperidin-1-yl}cyclobutoxy]piperidin-1-yl}pyrimidin-4-yl)amino]-2-oxo-1-(propan-2-yl)-1,2-dihydroquinolin-3-yl}oxy)-N-methylacetamide]",,,50 to 70,< 10
"CNC(=O)COc1cc2cc(Nc3nc(N4CCC(O[C@H]5C[C@H](N6CCN(CC7CCN(c8ccc9c(c8F)CN(C8CCC(=O)NC8=O)C9=O)CC7)CC6)C5)CC4)ncc3Cl)ccc2n(C(C)C)c1=O (some centres unmarked) [Compound 286, 2-({6-[(5-chloro-2-{4-[(1r,3r)-3-[4-({1-[2-(2,6-dioxopiperidin-3-yl)-4-fluoro-1-oxo-2,3-dihydro-1H-isoindol-5-yl]piperidin-4-yl}methyl)piperazin-1-yl]cyclobutoxy]piperidin-1-yl}pyrimidin-4-yl)amino]-2-oxo-1-(propan-2-yl)-1,2-dihydroquinolin-3-yl}oxy)-N-methylacetamide]",,,50 to 70,< 10
